The source of these data is patent US20050197350A1, “Novel quinoline, tetrahydroquinazoline, and pyrimidine derivatives and methods of treatment related to the use thereof” (TAISHO PHARMACEUTICAL CO., LTD., priority 2003, published 2005).

In this experiment the test system is MCH receptors. In words: MCH receptor activity class (method not given).
[1] abbreviates: class by percent of control at 10^-7 M or IC50.
Where [2] appears, read: MCH receptor, class by percent of control at 10^-7 M or IC50.
The mark [3] stands for this setting: class 1-3 by percent of control at 10^-7 M or IC50.
Where [4] appears, read: class by percent of control at 10^−7 M or IC50.
The mark [5] stands for this setting: activity class per percent of control at 10^-7 M or IC50.
[6] abbreviates: activity class 1-3: percent of control at 10^-7 M or IC50.

As to `CN(C)c1ccnc(N[C@H]2CC[C@@H](NC(=O)c3cnc4ccccc4c3)CC2)n1` [compound 915], the class under setting [1] was 3 (Class 3 The value of percent of control at 10^−7 M was more than 60% or the value of IC50 was more than 200 nM.).

For `CN(C)c1nc(N[C@H]2CC[C@@H](CNCc3csc4ccccc34)CC2)nc2c1CCCC2` [compound 1420], the class under setting [1] is 3 (Class 3 The value of percent of control at 10^−7 M was more than 60% or the value of IC50 was more than 200 nM.). With `CN(C)c1nc(N[C@H]2CC[C@@H](NC(=S)NCc3ccc(Cl)cc3Cl)CC2)nc2c1CCCC2` [compound 2032], under setting [2], the class is 3 (Class 3 The value of percent of control at 10^−7 M was more than 60% or the value of IC50 was more than 200 nM.). Same read-out and setting: next, `CN(C)c1cc(N[C@H]2CC[C@@H](NC(=O)c3ccc(F)cc3Cl)CC2)nc2ccccc12` [compound 61]: 3 (Class 3 The value of percent of control at 10^−7 M was more than 60% or the value of IC50 was more than 200 nM.); `CN(C)c1nc(N[C@H]2CC[C@@H](NC(=S)Nc3cccc(Cl)c3)CC2)nc2c1CCCC2` [compound 1933]: 3 (Class 3 The value of percent of control at 10^−7 M was more than 60% or the value of IC50 was more than 200 nM.). In the case of `CN(C)c1ccnc(N[C@H]2CC[C@@H](CNC(=O)c3ccc(-c4ccc(Cl)cc4[N+](=O)[O-])o3)CC2)n1` [compound 928], under setting [1], the class is 3 (Class 3 The value of percent of control at 10^−7 M was more than 60% or the value of IC50 was more than 200 nM.). With `CN(C)c1nc(N[C@H]2CC[C@@H](CNC(=O)c3cc(F)c(Cl)cc3Cl)CC2)nc2c1CCCC2` [compound 601], the class under setting [3] is listed as 3 (Class 3 The value of percent of control at 10^−7 M was more than 60% or the value of IC50 was more than 200 nM.). With `Cc1cc(N(C)C)nc(N[C@H]2CC[C@@H](C(=O)NCc3ccccc3OC(F)(F)F)CC2)n1` [compound 2823, cis-4-{[4-(dimethylamino)-6-methylpyrimidin-2-yl]amino}-N-[2-(trifluoromethoxy)benzyl]cyclohexanecarboxamide], the class under setting [4] is listed as 1 (Class 1: The value of percent of control at 10^−7 M was less than 40% or the value of IC50 was less than 50 nM.).

For `COc1ccc(CN[C@H]2CC[C@@H](Nc3cc(N(C)C)c4ccccc4n3)CC2)c2ccccc12` [compound 1089], the class under setting [5] is reported as 3 (Class 3 The value of percent of control at 10^−7 M was more than 60% or the value of IC50 was more than 200 nM.). On to `CN(C)c1ccnc(N[C@H]2CC[C@@H](CNCCCCCCc3ccccc3)CC2)n1` [compound 1526], for which the class under setting [6] is 3 (Class 3 The value of percent of control at 10^−7 M was more than 60% or the value of IC50 was more than 200 nM.). In the case of `COc1ccc(CSC2(CC(=O)N[C@H]3CC[C@@H](Nc4nccc(N(C)C)n4)CC3)CCCCC2)cc1` [compound 853], the class under setting [1] was 3 (Class 3 The value of percent of control at 10^−7 M was more than 60% or the value of IC50 was more than 200 nM.). With `CN(C)c1nc(N[C@H]2CC[C@@H](CNC(=O)Nc3ccc(F)cc3F)CC2)nc2c1CCCC2` [compound 2453], the class (MCH receptor activity class 1-3 (percent of control at 10^-7 M or IC50)) is reported as 2 (Class 2: The value of percent of control at 10^−7 M was from 40% to 60% or the value of IC′50 was from 50 nM to 200 nM.). As for `CC(NC(=O)NC1CCC(Nc2cc(N(C)C)c3ccccc3n2)CC1)c1ccccc1` (stereo not shown) [compound 2137], the class under setting [1] was 3 (Class 3 The value of percent of control at 10^−7 M was more than 60% or the value of IC50 was more than 200 nM.). Regarding `CC(C)c1ccc(NC(=S)N[C@H]2CC[C@@H](Nc3nc4c(c(N(C)C)n3)CCCC4)CC2)cc1` [compound 2016], the class under setting [2] was 3 (Class 3 The value of percent of control at 10^−7 M was more than 60% or the value of IC50 was more than 200 nM.). On to `COc1cc(COC(=O)NC[C@H]2CC[C@@H](Nc3nc4c(c(N(C)C)n3)CCCC4)CC2)c([N+](=O)[O-])cc1OC` [compound 1601], for which the class under setting [6] is reported as 3 (Class 3 The value of percent of control at 10^−7 M was more than 60% or the value of IC50 was more than 200 nM.).

In the case of `CN(C)c1ccnc(N[C@H]2CC[C@@H](NC(=O)c3sc(Cl)c(Cl)c3Cl)CC2)n1` [compound 350], the class under setting [1] was 3 (Class 3 The value of percent of control at 10^−7 M was more than 60% or the value of IC50 was more than 200 nM.).

Consider `CN(C)c1cc(N[C@H]2CC[C@@H](NC(=O)Cc3cccc(Oc4ccccc4)c3)CC2)nc2ccccc12` [compound 727], for which the class under setting [1] is recorded as 3 (Class 3 The value of percent of control at 10^−7 M was more than 60% or the value of IC50 was more than 200 nM.).

`CN(C)c1cc(N[C@H]2CC[C@@H](NC(=O)Nc3ccc(Br)cc3Br)CC2)nc2ccccc12` [compound 2139]: under setting [1], the class is recorded as 3 (Class 3 The value of percent of control at 10^−7 M was more than 60% or the value of IC50 was more than 200 nM.). Regarding `Cc1cnc(N[C@H]2CC[C@@H](NC(=O)c3ccc(F)c(Cl)c3)CC2)nc1N(C)C` [compound 2932], the class under setting [4] is on record as 3 (Class 3 The value of percent of control at 10^−7 M was more than 60% or the value of IC50 was more than 200 nM.). On to `Cc1cnc(N[C@H]2CC[C@@H](NC(=O)CN(C)c3cccc(Cl)c3)CC2)nc1N(C)C` [compound 2941], for which the class under setting [4] is given as 1 (Class 1: The value of percent of control at 10^−7 M was less than 40% or the value of IC50 was less than 50 nM.).

For `CN(C)c1ccnc(N[C@H]2CC[C@@H](CNC(=O)c3ccc(I)o3)CC2)n1` [compound 932, N-[(cis-4-{[4-(dimethylamino)pyrimidin-2-yl]amino}cyclohexyl)methyl]-5-iodo-2-furamide], the class under setting [1] is 2 (Class 2: The value of percent of control at 10^−7 M was from 40% to 60% or the value of IC′50 was from 50 nM to 200 nM.). In the case of `COc1ccc(C(=O)N[C@H]2CC[C@@H](Nc3nc(C)cc(N(C)C)n3)CC2)cc1C(F)(F)F` [compound 2981, N-(cis-4-{[4-(dimethylamino)-6-methylpyrimidin-2-yl]amino}cyclohexyl)-4-methoxy-3-(trifluoromethyl)benzamide], the class under setting [4] is listed as 2 (Class 2: The value of percent of control at 10^−7 M was from 40% to 60% or the value of IC′50 was from 50 nM to 200 nM.). As for `CSc1ccccc1NC(=O)N[C@H]1CC[C@@H](Nc2nc3c(c(N(C)C)n2)CCCC3)CC1` [compound 1845], the class under setting [1] is on record as 3 (Class 3 The value of percent of control at 10^−7 M was more than 60% or the value of IC50 was more than 200 nM.). On to `CN(C)c1ccnc(N[C@H]2CC[C@@H](CNC(=O)c3cc(C(F)(F)F)ccc3F)CC2)n1` [compound 410], for which, under setting [1], the class is recorded as 3 (Class 3 The value of percent of control at 10^−7 M was more than 60% or the value of IC50 was more than 200 nM.). The same measure, in the same setting: next, `COc1cc(CC(=O)N[C@H]2CC[C@@H](Nc3nccc(N(C)C)n3)CC2)cc(OC)c1O` [compound 839]: 3 (Class 3 The value of percent of control at 10^−7 M was more than 60% or the value of IC50 was more than 200 nM.).

For the compound `CN(C)c1nc(N[C@H]2CC[C@@H](NC(=S)Nc3ccc(OC(F)(F)F)cc3)CC2)nc2c1CCCC2` [compound 1988], under setting [2], the class is given as 3 (Class 3 The value of percent of control at 10^−7 M was more than 60% or the value of IC50 was more than 200 nM.). On to `CN(C)c1nc(N[C@H]2CC[C@@H](NC(=O)/C=C/c3ccccc3[N+](=O)[O-])CC2)nc2c1CCCC2` [compound 1002], for which the class under setting [5] is 3 (Class 3 The value of percent of control at 10^−7 M was more than 60% or the value of IC50 was more than 200 nM.). As to `COc1cc(NC(=S)N[C@H]2CC[C@@H](Nc3nc4c(c(N(C)C)n3)CCCC4)CC2)cc(OC)c1` [compound 2006], under setting [2], the class was 3 (Class 3 The value of percent of control at 10^−7 M was more than 60% or the value of IC50 was more than 200 nM.). `Cc1cc(C(=O)NC[C@H]2CC[C@@H](Nc3nccc(N(C)C)n3)CC2)cc(C)c1OCc1ccccc1` [compound 946]: the class under setting [1] was 3 (Class 3 The value of percent of control at 10^−7 M was more than 60% or the value of IC50 was more than 200 nM.). For the compound `Cc1ccc(C(=O)N[C@H]2CC[C@@H](Nc3nc4c(c(N(C)C)n3)CCCC4)CC2)cc1[N+](=O)[O-]` [compound 479], under setting [3], the class is given as 1 (Class 1: The value of percent of control at 10^−7 M was less than 40% or the value of IC50 was less than 50 nM.).

In the case of `CN(C)c1cc(N[C@H]2CC[C@@H](NC(=O)Nc3ccc(Oc4ccccc4)cc3)CC2)nc2ccccc12` [compound 2132], the class under setting [1] was 3 (Class 3 The value of percent of control at 10^−7 M was more than 60% or the value of IC50 was more than 200 nM.). Take `Cc1ccc(CN[C@H]2CC[C@@H](Nc3ncc(C)c(N(C)C)n3)CC2)cc1` [compound 2996]: the class under setting [4] is on record as 3 (Class 3 The value of percent of control at 10^−7 M was more than 60% or the value of IC50 was more than 200 nM.).

As to `Cc1cnc(N[C@H]2CC[C@@H](C(=O)N3CCc4ccccc4C3)CC2)nc1N(C)C` [compound 2793], the class under setting [4] is 3 (Class 3 The value of percent of control at 10^−7 M was more than 60% or the value of IC50 was more than 200 nM.). As to `Cc1cc(C)c(NC(=O)N[C@H]2CC[C@@H](Nc3cc(N(C)C)c4ccccc4n3)CC2)c(C)c1` [compound 2097, N-(cis-4-{[4-(dimethylamino)quinolin-2-yl]amino}cyclohexyl)-N′-mesitylurea], the class under setting [1] is recorded as 1 (Class 1: The value of percent of control at 10^−7 M was less than 40% or the value of IC50 was less than 50 nM.). On the same count and under the same terms, the value for `C[C@H](NC(=O)c1ccccc1C(=O)N[C@H]1CC[C@@H](Nc2nccc(N(C)C)n2)CC1)c1ccccc1` [compound 897] was 3 (Class 3 The value of percent of control at 10^−7 M was more than 60% or the value of IC50 was more than 200 nM.). With `CN(C)c1cc(N[C@H]2CC[C@@H](NC(=O)c3cccc(I)c3)CC2)nc2ccccc12` [compound 58, N-(cis-4-{[4-(dimethylamino)quinolin-2-yl]amino}cyclohexyl)-3-iodobenzamide], the class under setting [2] is given as 2 (Class 2: The value of percent of control at 10^−7 M was from 40% to 60% or the value of IC′50 was from 50 nM to 200 nM.). Regarding `Cc1cc(N(C)C)nc(N[C@H]2CC[C@@H](CNC(=O)c3ccc(C#N)cc3)CC2)n1` [compound 2761], the class under setting [4] is given as 3 (Class 3 The value of percent of control at 10^−7 M was more than 60% or the value of IC50 was more than 200 nM.).
